The values below come from patent publication EP4001279A1, “NOVEL SPIROPYRROLIDINE DERIVED ANTIVIRAL AGENTS” (Enanta Pharmaceuticals, Inc., priority 2020, dated 2022).

This assay has as its system 229E human corona virus (hCoV). Briefly: 229E live virus assay (CPE, ATPlite readout in MRC-5 cells). It is filed as cell-based, hCoV-229E. Particulars: Human coronavirus 229E, MRC5, hCoV-229E live virus, MOI 0.05, ATPlite readout, run in duplicate.
For the compound `CC(C)C[C@@H](C(=O)N1C[C@]2(C[C@H]1C#N)C(=O)Nc1ccccc12)N(C)C(=O)c1cc(Cl)c2[nH]c(C3CC3)nc2c1` [Example 256], the EC50 is less than 100 nM.
On to `[2H]C([2H])([2H])N(C(=O)c1cc(OC(F)(F)F)c2ncccc2c1)[C@@H](CC(C)(C)C)C(=O)N1C[C@]2(C[C@H]1C#N)C(=O)Nc1ccccc12` [Example 382], for which the EC50 is less than 100 nM.
The compound `CN(C(=O)c1cn(C(C)(C)C)nn1)[C@@H](CC1CC1)C(=O)N1C[C@]2(C[C@H]1C#N)C(=O)Nc1ccccc12` [Example 402] yielded a concentration giving a half-maximal response (EC50) of less than 100 nM.
Turning to `CC(C)C[C@@H](C(=O)N1C[C@]2(C[C@H]1C#N)C(=O)Nc1ccccc12)N(C)C(=O)c1cn(-c2ccccn2)nn1` [Example 267], the EC50 is less than 100 nM.
Turning to `CC(C)C[C@@H](C(=O)N1C[C@]2(C[C@H]1C#N)C(=O)Nc1ccccc12)N(C)C(=O)c1cccc(-c2ccc(C#N)cc2)c1` [Example 265], the concentration giving a half-maximal response (EC50) fell in the range of 100 to 1000 nM.
`CC(C)C[C@@H](C(=O)N1C[C@]2(C[C@H]1C#N)C(=O)Nc1ccccc12)N(C)C(=O)c1ccn(C)n1` [Example 204]: the 50% effective concentration (EC50) was less than 100 nM.
The figure for `CN(C(=O)C(F)(F)c1ccccn1)[C@@H](CC(C)(C)F)C(=O)N1C[C@]2(C[C@H]1C#N)C(=O)Nc1ccc(Cl)cc12` [Example 481] is 100 to 1000 nM; for `CC(C)C[C@@H](C(=O)N1C[C@]2(C[C@H]1C#N)C(=O)Nc1ccccc12)N(C)C(=O)c1cc2ccccn2n1` [Example 247] it is less than 100 nM; for `CCN(C(=O)OCc1ccccc1)[C@@H](CC(C)C)C(=O)N1C[C@]2(C[C@H]1C#N)C(=O)Nc1ccccc12` [Compound 90] it is 100 to 1000 nM.
For the compound `Cc1cc(C)c2ccc(C(=O)N(C)[C@@H](CC(C)C)C(=O)N3C[C@]4(C[C@H]3C#N)C(=O)Nc3ccccc34)nc2c1O` [Example 259], the EC50 is less than 100 nM.
As for `COc1cc(C(=O)N(C)[C@@H](CC(C)C)C(=O)N2C[C@]3(C[C@H]2C#N)C(=O)Nc2ccccc23)cc2cn(C3CCC3)nc12` [Example 320], the half-maximal effective concentration (EC50) fell in the range of 100 to 1000 nM.
The figure for `CN(C(=O)c1cc2c(F)cccc2[nH]1)[C@@H](CC1CCC1)C(=O)N1C[C@]2(C[C@H]1C#N)C(=O)Nc1ccccc12` [Example 93] is less than 100 nM; for `COc1cccc2[nH]c(C(=O)N[C@@H](CC(C)C)C(=O)N3C[C@]4(C[C@H]3C#N)C(=O)N(C)c3ccccc34)cc12` [Example 120] it is greater than 1000 nM.
`CN(C(=O)OCc1ccccc1)[C@@H](CC(C)(C)C)C(=O)N1C[C@]2(C[C@H]1C#N)C(=O)Nc1ccccc12` [Example 40]: the EC50 was 100 to 1000 nM.
For the compound `CCCC[C@H](NC(=O)[C@@H](O)c1ccc(F)cc1)C(=O)N1C[C@]2(C[C@H]1C#N)C(=O)Nc1ccccc12` [Example 418], the EC50 was 100 to 1000 nM.
In the case of `CC(C)C[C@@H](C(=O)N1C[C@]2(C[C@H]1C#N)C(=O)Nc1ccccc12)N(C)C(=O)Cc1ccccc1` [Example 226], the 50% effective concentration (EC50) was less than 100 nM.
The compound `CC(C)C[C@@H](C(=O)N1C[C@]2(C[C@H]1C#N)C(=O)Nc1ccccc12)N(C)C(=O)c1cc2c(F)cccc2[nH]1` [Example 44] showed a concentration for a half-maximal effect (EC50) of less than 100 nM.
As for `C[C@@H](OC(=O)N[C@@H](CC(C)(C)C)C(=O)N1C[C@]2(C[C@H]1C#N)C(=O)Nc1ccc(Cl)cc12)c1ccc(F)cc1` [Example 495], the 50% effective concentration (EC50) was in the range of 100 to 1000 nM.
The compound `CN(C(=O)c1cc2c(F)cc(F)c(F)c2[nH]1)[C@@H](CCC(C)(C)C)C(=O)N1C[C@]2(C[C@H]1C#N)C(=O)Nc1ccccc12` [Example 412] showed an EC50 of less than 100 nM.
In the case of `CC(C)C[C@@H](C(=O)N1C[C@]2(C[C@H]1C#N)C(=O)Nc1ccccc12)N(C)C(=O)c1ccncc1` [Example 194] it was less than 100 nM; in that of `[2H]C([2H])([2H])N(C(=O)Cc1ccncc1)[C@@H](CC(C)(C)F)C(=O)N1C[C@]2(C[C@H]1C#N)C(=O)Nc1ccc(Cl)cc12` [Example 474], 100 to 1000 nM; in that of `CC(C)C[C@@H](C(=O)N1C[C@]2(C[C@H]1C#N)C(=O)Nc1ccccc12)N(C)C(=O)c1cc2c(F)cc(F)cc2[nH]1` [Example 46], less than 100 nM.
Turning to `COc1cc(C#N)cc2[nH]c(C(=O)N[C@@H](CC(C)C)C(=O)N3C[C@]4(C[C@H]3C#N)C(=O)Nc3ccccc34)cc12` [Example 26], the EC50 is less than 100 nM.
In the case of `CC(C)C[C@@H](C(=O)N1C[C@]2(C[C@H]1C#N)C(=O)Nc1ccccc12)N(C)C(=O)c1ccc2cccnc2c1` [Example 218], the 50% effective concentration (EC50) is less than 100 nM.
On to `CCCOC[C@H](NC(=O)c1cc2c(OC)cccc2[nH]1)C(=O)N1C[C@]2(C[C@H]1C#N)C(=O)Nc1ccccc12` [Example 126], for which the EC50 was less than 100 nM.
As for `CC(C)CC[C@@H](C(=O)N1C[C@]2(C[C@H]1C#N)C(=O)Nc1ccccc12)N(C)C(=O)c1cc2c(F)cc(F)cc2[nH]1` [Example 104], the EC50 was less than 100 nM.
The figure for `CC(C)C[C@@H](C(=O)N1C[C@]2(C[C@H]1C#N)C(=O)Nc1ccccc12)N(C)C(=O)c1cc(Cl)cc(Cl)c1` [Example 172] is less than 100 nM; for `CC(C)(C)C[C@H](NC(=O)OC(C)(C)c1ccc(F)cc1)C(=O)N1C[C@]2(C[C@H]1C#N)C(=O)Nc1ccc(Cl)cc12` [Example 496] it is greater than 1000 nM; for `CCCOC[C@@H](C(=O)N1C[C@]2(C[C@H]1C#N)C(=O)Nc1ccccc12)N(C)C(=O)c1cc2c(F)cc(F)cc2[nH]1` [Example 413] it is less than 100 nM.
The compound `CC(C)C[C@@H](C(=O)N1C[C@]2(C[C@H]1C#N)C(=O)Nc1ccccc12)N(C)C(=O)[C@H](c1cn(C)nn1)C(C)C` [Example 351] displayed an EC50 of 100 to 1000 nM.
The figure for `COc1ccc2[nH]c(C(=O)N(C)[C@@H](CC(C)C)C(=O)N3C[C@]4(C[C@H]3C#N)C(=O)Nc3ccccc34)nc2c1` [Example 249] is less than 100 nM; for `CC(C)C[C@@H](C(=O)N1C[C@]2(C[C@H]1C#N)C(=O)Nc1ccccc12)N(C)C(=O)c1cc2ccccc2o1` [Example 208] it is less than 100 nM.
The compound `COc1cccc2[nH]c(C(=O)N[C@@H](CC3CC3)C(=O)N3C[C@]4(C[C@H]3C#N)C(=O)Nc3ccccc34)cc12` [Example 19] gave an EC50 of less than 100 nM.
With `CC(C)C[C@@H](C(=O)N1C[C@]2(C[C@H]1C#N)C(=O)Nc1ccccc12)N(C)C(=O)c1cc2c(OC(F)(F)F)cccc2[nH]1` [Example 49], the EC50 is less than 100 nM.
Take `CC(C)C[C@@H](C(=O)N1C[C@]2(C[C@H]1C#N)C(=O)Nc1ccccc12)N(C)C(=O)c1cncc(F)c1` [Example 196]: the 50% effective concentration (EC50) is less than 100 nM.
`C[C@@H](C(=O)N(C)[C@@H](CC(C)(C)C)C(=O)N1C[C@]2(C[C@H]1C#N)C(=O)Nc1ccccc12)c1cnn(C)c1` [Example 372] yielded a concentration giving a half-maximal response (EC50) of less than 100 nM.
Compound `CC(C)C[C@@H](C(=O)N1C[C@]2(C[C@H]1C#N)C(=O)Nc1ccccc12)N(C)C(=O)c1ccc2nc(-c3ccccc3)ccc2c1` [Example 257] returned a concentration giving a half-maximal response (EC50) of less than 100 nM.
`CC(C)(C)C[C@H](NC(=O)c1cc2c(F)c(F)ccc2[nH]1)C(=O)N1C[C@]2(C[C@H]1C#N)C(=O)Nc1ccccc12` [Example 20] had an EC50 of less than 100 nM.
`CC(C)C[C@@H](C(=O)N1C[C@]2(C[C@H]1C(O)S(=O)(=O)O)C(=O)Nc1ccccc12)N(C)C(=O)c1cc2c(F)cc(F)cc2[nH]1` (stereo partly shown) [Example 153] had a half-maximal effective concentration (EC50) of less than 100 nM.
The figure for `CC(C)C[C@@H](C(=O)N1C[C@]2(C[C@H]1C=O)C(=O)Nc1ccccc12)N(C)C(=O)c1cc2c(F)cc(F)c(F)c2[nH]1` [Example 150] is less than 100 nM.
For the compound `CC(C)C[C@@H](C(=O)N1C[C@]2(C[C@H]1C#N)C(=O)Nc1ccccc12)N(C)C(=O)CCc1ccccc1` [Example 227], the EC50 was less than 100 nM.
The figure for `CC(C)C[C@@H](C(=O)N1C[C@]2(C[C@H]1C#N)C(=O)Nc1ccccc12)N(C)C(=O)c1cccc(OC(F)F)c1` [Example 188] is less than 100 nM; for `[2H]C([2H])([2H])N(C(=O)C1(c2ccncc2)CC1)[C@@H](CC(C)(C)F)C(=O)N1C[C@]2(C[C@H]1C#N)C(=O)Nc1ccc(Cl)cc12` [Example 475] it is 100 to 1000 nM; for `CC(C)C[C@@H](C(=O)N1C[C@]2(C[C@H]1C#N)C(=O)Nc1ccccc12)N(C)C(=O)c1ccnn1C` [Example 203] it is less than 100 nM.
As to `CC(C)C[C@@H](C(=O)N1C[C@]2(C[C@H]1C#N)C(=O)Nc1ccccc12)N(C)C(=O)c1ccc2c(c1)OC(F)(F)O2` [Example 190], the EC50 is less than 100 nM.
The compound `CC(C)C[C@H](NC(=O)c1cc2c(F)cccc2[nH]1)C(=O)N1C[C@]2(C[C@H]1C=O)C(=O)Nc1ccccc12` [Example 25] came in with an EC50 of less than 100 nM.
`CC(C)(C)C[C@H](NC(=O)c1cc(OC(F)(F)F)c2ncccc2c1)C(=O)N1C[C@]2(C[C@H]1C#N)C(=O)Nc1ccccc12` [Example 137] showed an EC50 of less than 100 nM.
With `CN(C(=O)c1cc2c(F)cccc2[nH]1)[C@@H](CC(C)(C)C)C(=O)N1C[C@]2(C[C@H]1C#N)C(=O)Nc1ccccc12` [Example 87], the concentration for a half-maximal effect (EC50) is less than 100 nM.
The figure for `CCN(C(=O)c1cc2c(F)cccc2[nH]1)[C@@H](CC(C)C)C(=O)N1C[C@]2(C[C@H]1C#N)C(=O)Nc1ccccc12` [Example 95] is 100 to 1000 nM; for `COc1cccc2[nH]c(C(=O)NC(CC(C)C)C(=O)N3CC4(CC3C=O)C(=O)Nc3ccccc34)cc12` (stereo not shown) [Example 23] it is less than 100 nM.
As to `CC(C)C[C@@H](C(=O)N1C[C@]2(C[C@H]1C#N)C(=O)Nc1ccccc12)N(C(=O)OCc1ccccc1)C(C)C` [Example 160], the EC50 is greater than 1000 nM.
The compound `CC(C)C[C@@H](C(=O)N1C[C@]2(C[C@H]1C#N)C(=O)Nc1ccccc12)N(C)C(=O)c1cc2ccc(=O)[nH]c2cc1OC1CC1` [Example 254] had an EC50 of less than 100 nM.
`CC(C)C[C@@H](C(=O)N1C[C@]2(C[C@H]1C#N)C(=O)Nc1ccccc12)N(C)C(=O)c1nnn(C(C)(C)C)n1` [Example 356] registered a concentration for a half-maximal effect (EC50) of less than 100 nM.
The figure for `CC(C)C[C@@H](C(=O)N1C[C@]2(C[C@H]1C#N)C(=O)Nc1ccccc12)N(C)C(=O)c1cccc(-c2ccccc2C#N)c1` [Example 278] is less than 100 nM; for `COc1cccc2[nH]c(C(=O)N(C)[C@@H](CC3CCC3)C(=O)N3C[C@]4(C[C@H]3C#N)C(=O)Nc3ccccc34)cc12` [Example 92] it is less than 100 nM.
